Results as given in PubChem BioAssay AID1117319 (Southern Research Institute, 2015).
Results filed as inconclusive are left out.

Each compound was assayed against Virion infectivity factor (Human immunodeficiency virus type 1 group M subtype B (isolate BH10)) + Virion infectivity factor (Human immunodeficiency virus type 1 group M subtype B (isolate BRU/LAI)) + Virion infectivity factor (Human immunodeficiency virus type 1 group M subtype B (isolate PCV12)) + Virion infectivity factor (Human immunodeficiency virus type 1 group M subtype B (isolate HXB2)) + DNA dC->dU-editing enzyme APOBEC-3G (Homo sapiens) (UniProt P69720+P69721+P69722+P69723+Q9HC16) (assay: inhibitors of Vif binding to APOBEC3G peptide, primary screen, biochemical, TR-FRET, GST-Vif 1-94, biotin-A3G peptide, dose response retest (AID 1117319);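 further: Vif residues 1-94 fused to GST binding biotinylated APOBEC3G peptide 110-148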).
COc1ccccc1-n1c(-c2cc(-c3ccco3)[nH]n2)n[nH]c1=S was tested, and the IC50 was 3.11 µM. Compound O=C1CCCC/C1=C/Nc1ccc2c(c1)OCO2 has an IC50 of 5.94 µM. CNC(=O)[C@@H]1C[C@H]1[C@@H](NC(=O)OCc1ccccc1)c1ccccc1 showed an IC50 of 16.6 µM. Work on O=C1C(Cl)=C(N2CCCCC2)C(=O)C(Cl)=C1c1cnc(N2CCCCC2)s1 yielded an IC50 of 4.21 µM. O=[N+]([O-])c1cc(Br)c(O)c(C=Nc2ccc(N3CCOCC3)cc2)c1 showed an IC50 of 7.19 µM. In the case of COc1ccc2[nH]c(=O)c(CN(Cc3ccco3)C(c3nnnn3Cc3ccccc3)C(C)C)cc2c1 (stereo not drawn), the IC50 is reported as 94.6 µM. Work on O=C1NC(=S)SC1=C1CCCC1 yielded an IC50 of 6.2 µM. COc1c(OC(C)=O)ccc(/C=C/c2ccc3ccccc3n2)c1[N+](=O)[O-] gave an IC50 of 97.2 µM. COc1cc(/C=C/C=C2/CC/C(=C/C=C/c3ccc(O)c(OC)c3)C2=O)ccc1O gave an IC50 of 4.03 µM. For CNC[C@H](O)c1ccc(O)c(O)c1, the IC50 was 1.16 µM. CC(CNc1ccccc1O)C(=O)O (stereo not drawn) gave an IC50 of 6.17 µM. In the case of Cc1cc(O)c(Oc2cc(C)cc(O)c2O)c(O)c1, the IC50 is reported as 13.8 µM. Nc1ccc(Nc2ccccc2)c(S(=O)(=O)O)c1 gave an IC50 of 5.26 µM. C(=C\c1ccco1)/C=N/n1cnnc1 was tested, and the IC50 was 1.35 µM. CCN(CC)S(=O)(=O)c1ccc(/C=C/C(=O)Nc2ccc(N3CCOCC3)cc2)cc1 was tested, and the IC50 was 55.7 µM. Cc1c(C(=O)N2CCN(c3ccc(F)cc3)CC2)sc2nc(-c3ccccc3)cn12 was tested, and the IC50 was 48.7 µM. Compound O=C1CC(/C=C/c2ccco2)=Nc2ccccc2N1 has an IC50 of 1.69 µM. In the case of O=C(OCC1O[C@@H](OC(=O)c2cc(O)c(O)c(O)c2)[C@@H](OC(=O)c2cc(O)c(O)c(O)c2)[C@@H](OC(=O)c2cc(O)c(O)c(O)c2)[C@@H]1OC(=O)c1cc(O)c(O)c(O)c1)c1cc(O)c(O)c(O)c1 (stereo partly drawn), the IC50 is reported as < 0.195 µM. For CNc1ccc(Br)cc(C(=O)/C=C/c2ccc(OC)cc2)c1=O, the IC50 was 3.53 µM. Cn1cccc1/C=C1/C(=O)NC(=S)N(Cc2ccc(F)cc2)C1=O gave an IC50 of 1.24 µM. In the case of CCCSC1=N/C(=C\c2ccc([N+](=O)[O-])o2)C(=O)S1, the IC50 is reported as 12.9 µM. Work on CCCSC1=N/C(=C\C=C\c2ccco2)C(=O)S1 yielded an IC50 of 3.79 µM. Cc1ccc(CNC(=O)COc2ccc3c(c2)CCC3)cc1 gave an IC50 of 44.6 µM. With Cc1ccccc1NS(=O)(=O)c1ccc2[nH]cc(C(=O)N(C)Cc3ccco3)c(=O)c2c1 the IC50 was 56.8 µM. O=C(NC1CC1)c1cc(-c2ccco2)nc2ccccc12 gave an IC50 of 2.53 µM. Compound O=C(c1cccc(-n2cccc2)c1)N1CCN(S(=O)(=O)c2ccccc2)CC1 has an IC50 of 17.3 µM. CC1(OC(=O)C2CCCC2)C(=O)C=C2C=C(c3ccsc3)OC=C2C1=O (stereo not drawn) gave an IC50 of 8.75 µM. Work on O=C(NN(C(=O)c1ccccc1)c1ccccc1)c1ccccc1 yielded an IC50 of 70.7 µM. N=C1/C(=C/c2ccc(Br)o2)C(=O)N=C2SC(CC(=O)N3CCCC3)=NN12 gave an IC50 of 27.8 µM. With Cc1cccc(N2C(=O)/C(=C/c3ccc(CN(CCC#N)S(C)(=O)=O)o3)C(=O)NC2=S)c1 the IC50 was 22.9 µM. Compound COc1ccc(O)c(C(=O)C2c3ccccc3C(=O)N2c2ccc(C)cc2)c1 (stereo not drawn) has an IC50 of 20.4 µM. In the case of O=C(O)c1ccc2c(c1)C1C(Cl)C(Sc3ccccc3[N+](=O)[O-])CC1C(c1cccc([N+](=O)[O-])c1)N2 (stereo not drawn), the IC50 is reported as 11.8 µM. C/C(N)=C(/C#N)C(=O)CSc1nnc(NC(C)C)s1 showed an IC50 of 9.7 µM. Cc1cc2c(=Cc3ccc(N(C)C)cc3)c3ccccc3n2[n+]1C showed an IC50 of 16.9 µM. Cc1cc(C(C)c2ccccc2)c(O)c(CN2CCOCC2)c1C (stereo not drawn) gave an IC50 of 28.8 µM. For O=[N+]([O-])c1ccc(-c2ccc(/C=N/c3c(-c4ccco4)nc4ccccn34)o2)cc1, the IC50 was 0.26 µM. Work on Cc1nccn1CC(=O)N/N=C/c1ccc(O)c(O)c1 yielded an IC50 of 23.2 µM. In the case of CCOC(=O)N1CC=C2C(C#N)=C(N)C(C#N)(C#N)[C@H](c3cccs3)[C@H]2C1, the IC50 is reported as 4.68 µM. O=C(c1cc(COc2cccc3cccnc23)on1)N1CCC[C@H]1CO gave an IC50 of 88.7 µM. Compound O=[N+]([O-])c1ccc(/C=N/Nc2nc(N3CCCC3)nc(N3CCCC3)n2)o1 has an IC50 of 54.2 µM. Cc1cccc(OCCn2cccc2/C=C2/C(=O)NC(=O)N(Cc3ccco3)C2=O)c1 gave an IC50 of 4.18 µM. O=C(NCCN1CCN(c2ccccc2)CC1)C1CCN(S(=O)(=O)c2cccc3nonc23)CC1 showed an IC50 of 43 µM. In the case of CCN(CC)c1ccc(N=Cc2c(O)n(-c3ccc(Cl)cc3)c(=O)[nH]c2=O)cc1, the IC50 is reported as 37.6 µM. Work on O=C(O)c1cc2cccc(S(=O)(=O)N3CCOCC3)c2cc1O yielded an IC50 of 38 µM. Work on Cc1ccc(C)n1-c1cccc(C(=O)O)c1 yielded an IC50 of 0.72 µM. O=C1C2CCCN2C(c2cccs2)N1c1ccccn1 (stereo not drawn) showed an IC50 of 82 µM. For CCCn1c(CNc2ccccc2O)nc2ccccc21, the IC50 was 53 µM. C[c-]1[c-](C)[c-](C)[c-](C)[c-]1C.[Fe].c1cc2nccc(N3CCCC3)[c-]2c1 (stereo not drawn) gave an IC50 of 2.03 µM. Cc1cccc(/C=C(\C(=O)O)c2ccc(S(=O)(=O)N3CCCC3)s2)c1 was tested, and the IC50 was 22 µM. CCCCC1=CC2=CC(=O)C(C)(OC(=O)C3CCCC3)C(=O)C2=CO1 (stereo not drawn) showed an IC50 of 15.2 µM. O=C(Nc1cccc(C(F)(F)F)c1)c1ccc2nc(-c3ccco3)c(-c3ccco3)nc2c1 was tested, and the IC50 was 0.69 µM. COc1ccc(C2=NOC(C(=O)NCc3cccs3)C2)cc1OC (stereo not drawn) was tested, and the IC50 was 89.8 µM. CCC1C/C(=C/c2ccco2)C(=O)/C(=C/c2ccco2)C1 (stereo not drawn) was tested, and the IC50 was 2.59 µM. CC(C)C1Nc2ccc(C(=O)O)cc2C2C=CCC21 (stereo not drawn) showed an IC50 of 8.06 µM. For c1ccc2c3c([nH]c2c1)CNCC3, the IC50 was 84.2 µM. With CC(=O)c1sc2nc(-c3ccco3)ccc2c1N the IC50 was 2.78 µM. O=C(/C=C/c1ccco1)NC(=S)Nc1ccccc1N1CCOCC1 showed an IC50 of 11.5 µM. CC(=O)c1ccc(NC(=O)CSc2nnc(-c3ccco3)c(-c3ccco3)n2)cc1 gave an IC50 of 3.91 µM. Compound Cc1noc(C)c1COc1ccc(C(=O)OCC(=O)N2c3ccccc3NC(=O)C2(C)C)cc1 has an IC50 of 14.9 µM. CCc1nc2oc3cc(OC)ccc3c(=O)c2c(=O)n1Cc1ccco1 showed an IC50 of 39.4 µM. Work on NN=C1C(Cl)=C(Cl)C(Cl)=C1Cl yielded an IC50 of 10.6 µM. CCCN1C(=O)S/C(=C\c2ccc(N3CCOCC3)cc2C)C1=O gave an IC50 of 23.4 µM. For CC(C)c1ccc(S(=O)(=O)/N=C2/C=CC(=O)c3ccccc32)cc1, the IC50 was 5.36 µM. With CN1CCN(S(=O)(=O)c2ccc(NC(=S)NC(=O)c3ccc(Cl)cc3)cc2)CC1 the IC50 was 80.7 µM. O=c1cc(-c2ccc(O)cc2)oc2cc(O)c(C3OC(CO)C(O)C(O)C3O)c(O)c12 (stereo not drawn) showed an IC50 of 7.05 µM. Compound O=C(O)CCc1ccc(S(=O)(=O)Nc2cc(C(F)(F)F)ccc2N2CCCC2)cc1 has an IC50 of 14.4 µM. For COc1ccc2ccccc2c1C1CC(=O)N2CN(Cc3ccco3)CSC2=C1C#N (stereo not drawn), the IC50 was 53.6 µM. Compound O=C(O)CSc1c2c(nc3cc(C(=O)Nc4cccc(C(F)(F)F)c4)ccc13)CCC2 has an IC50 of 13.4 µM. For Cn1cccc1/C=C1\C(=O)NC(=O)N(Cc2ccccc2)C1=O, the IC50 was 11.2 µM. O=S(=O)(c1ccc(NC(=S)N/N=C/c2ccc(O)c(O)c2)cc1)N1CCOCC1 showed an IC50 of 7.53 µM. In the case of C=CC(=O)N1C/C(=C/c2ccc(F)cc2)C(=O)/C(=C\c2ccc(F)cc2)C1, the IC50 is reported as 7.41 µM. In the case of O=C(Cc1cc(=O)[nH][nH]1)N/N=C/C=C/c1ccccc1, the IC50 is reported as 26.4 µM. CC1=Nc2nc(N3CCCCC3)c(C#N)c3c4c(nc(c23)N1)N(c1ccc(C(C)C)cc1)C(=O)C4 was tested, and the IC50 was 5.27 µM. With Cc1nc2ncccn2c1-c1csc(NCc2ccco2)n1 the IC50 was 1.22 µM. For O=C(O)Cn1cc(/C=C2\C(=O)NC(=O)N(Cc3ccco3)C2=O)c2ccccc21, the IC50 was 14.7 µM. Work on O=C(O)CCCCC1SCC2NC(=O)NC21 (stereo not drawn) yielded an IC50 of 0.27 µM. O=C(NCc1ccccn1)c1coc(=O)c(Br)c1 was tested, and the IC50 was 58.6 µM. In the case of Cc1cccc(NC(=O)CNC(=O)c2cccc(-n3cccc3)c2)c1C, the IC50 is reported as 12.2 µM. Compound O=C1NC(=O)N(Cc2ccco2)C(=O)/C1=C/C=C/c1ccco1 has an IC50 of 0.91 µM. Compound Cc1nn(-c2ccccn2)c2c1C(=O)C(Br)CC2 (stereo not drawn) has an IC50 of 3.41 µM. Work on CC1=C/C(=N\OS(=O)(=O)c2ccccc2)C=CC1=O yielded an IC50 of 16.7 µM. With O=C1C=Cc2ccccc2C1=O the IC50 was 10.6 µM. With O=C(Cn1cnc2c(nnn2Cc2ccc(F)cc2)c1=O)NCc1ccco1 the IC50 was 94.6 µM. Work on Oc1ccc(N=Cc2ccc(-c3cccs3)s2)cc1 yielded an IC50 of 0.92 µM. O=C(CCN1CCN(c2ccccc2)CC1)N/N=C/c1ccc(O)c(O)c1O showed an IC50 of 1.02 µM. In the case of CN1c2ccsc2C(O)=C(C(=S)Nc2ccc(F)c(Cl)c2)S1(=O)=O, the IC50 is reported as 1.12 µM. In the case of O=C1CC(Nc2ccc(N3CCOCC3)cc2)C(=O)N1C1CCCCC1 (stereo not drawn), the IC50 is reported as 2.74 µM. COc1ccccc1N1C(=O)NC(=O)/C(=C/c2ccc([N+](=O)[O-])s2)C1=O gave an IC50 of 6.9 µM. Fc1cccc(-c2cc3nc4c(c(NCc5ccco5)n3n2)CCCC4)c1 gave an IC50 of 50.8 µM. For CCc1cccc(NC(=O)CCS(=O)(=O)c2ccc(Br)cc2)c1, the IC50 was 14.7 µM. NS(=O)(=O)c1ccc(CCNC(=O)CCS(=O)(=O)c2ccc(Br)cc2)cc1 was tested, and the IC50 was 25 µM. In the case of CN1CCN(C2=C(Cl)C(=O)c3ccccc3C2=O)CC1, the IC50 is reported as 4.42 µM. For COc1ccc(NC(=O)N2c3ccc(OC)cc3C(C)=CC2(C)C)cc1, the IC50 was 3.27 µM. For O=C1/C(=C/C=C/c2ccco2)SC(=S)N1c1ccc(O)cc1, the IC50 was 2.57 µM. O=C(O)c1ccc(-n2nc(C(F)(F)F)c3c2-c2ccoc2CC3)cc1 was tested, and the IC50 was 58.6 µM. With CC(C)CCNC(=O)Cn1c2c(c(-c3ccccc3Cl)cc1=O)CCC2 the IC50 was 19.7 µM. Cc1ccc(N2C(=O)/C(=C\c3ccco3)SC2=S)cc1 gave an IC50 of 7.72 µM. With CNc1ccccc(C(=O)/C=C/c2ccccc2OC)c1=O the IC50 was 3.9 µM. Compound COc1cc(C2C(C(=O)c3ccco3)=C(O)C(=O)N2c2cc(C)on2)cc(Br)c1O (stereo not drawn) has an IC50 of 26.5 µM. CC(=O)Nc1ccc(S(=O)(=O)Nc2nc3ccccc3nc2Nc2ccc(N)cc2)cc1 was tested, and the IC50 was 0.62 µM. CCOc1ccc(NCC2CCOC(C)(C)C2)cc1 (stereo not drawn) was tested, and the IC50 was 9.47 µM. CCOc1cccc(=O)c2c(C)n(CC(=O)c3ccccc3)c(C)c12 gave an IC50 of 8.28 µM. CCOC(=O)C1=C(O)/C(=C\c2ccc(CNC(=O)C(=O)Nc3ccccc3)o2)N=C1C was tested, and the IC50 was 1.86 µM. CCCCn1c(=NC(=O)c2cccnc2)c(C#N)cc2c(=O)n3cccc(C)c3nc21 showed an IC50 of 55.9 µM. O=c1[nH]c(=S)[nH]c2c1C(c1ccc(Br)cc1)c1c([nH]c(=S)[nH]c1=O)O2 was tested, and the IC50 was 41.1 µM. COC1=C(N)C(=O)c2nc(-c3nc(C(=O)O)c(C)c(-c4ccc(OC)c(OC)c4O)c3N)ccc2C1=O showed an IC50 of 10.8 µM. For Cc1cccc2cc(-c3ccccc3)c(-c3ccccc3)c[n+]12, the IC50 was 6.83 µM. Compound Cc1ccc(NC(=O)CN2C(=O)N/C(=C/c3ccco3)C2=O)cc1 has an IC50 of 2 µM.
